These are literature values, as cited in patent US20260191683A1, “SUSTAINED RELEASE OCULAR IMPLANTS” (University of Tennessee Research Foundation, priority 2023, published 2026).

The conditions of the data set: high permeability.

Turning to `CC(C)C[C@H](CN)CC(=O)O` [PRG, pregabalin], the BCS class entry is reported as “BCS class I drug”.
